The target of test [1] is Cyclin-dependent kinase 1/cyclin B (Homo sapiens) (UniProt P06493+P14635+Q8WWL7+O95067). The experiment in a line: Selectivity interaction (Kinase panel (Z-LYTE Assay)) EUB0001632a CDK1. The class given is protein-complex assay. The conditions noted are these: at 10 µM.
Test [2] has as its target SRSF protein kinase 2 (Homo sapiens) (UniProt P78362). The experiment in a line: Selectivity interaction (KinomeScan (DiscoverX)) EUB0001619a SRPK2. The conditions noted are these: at 1 µM.
Test [3] concerns the target T1, Tyrosine-protein kinase Mer (Homo sapiens) (UniProt Q12866).
T1 sequence (whole entry): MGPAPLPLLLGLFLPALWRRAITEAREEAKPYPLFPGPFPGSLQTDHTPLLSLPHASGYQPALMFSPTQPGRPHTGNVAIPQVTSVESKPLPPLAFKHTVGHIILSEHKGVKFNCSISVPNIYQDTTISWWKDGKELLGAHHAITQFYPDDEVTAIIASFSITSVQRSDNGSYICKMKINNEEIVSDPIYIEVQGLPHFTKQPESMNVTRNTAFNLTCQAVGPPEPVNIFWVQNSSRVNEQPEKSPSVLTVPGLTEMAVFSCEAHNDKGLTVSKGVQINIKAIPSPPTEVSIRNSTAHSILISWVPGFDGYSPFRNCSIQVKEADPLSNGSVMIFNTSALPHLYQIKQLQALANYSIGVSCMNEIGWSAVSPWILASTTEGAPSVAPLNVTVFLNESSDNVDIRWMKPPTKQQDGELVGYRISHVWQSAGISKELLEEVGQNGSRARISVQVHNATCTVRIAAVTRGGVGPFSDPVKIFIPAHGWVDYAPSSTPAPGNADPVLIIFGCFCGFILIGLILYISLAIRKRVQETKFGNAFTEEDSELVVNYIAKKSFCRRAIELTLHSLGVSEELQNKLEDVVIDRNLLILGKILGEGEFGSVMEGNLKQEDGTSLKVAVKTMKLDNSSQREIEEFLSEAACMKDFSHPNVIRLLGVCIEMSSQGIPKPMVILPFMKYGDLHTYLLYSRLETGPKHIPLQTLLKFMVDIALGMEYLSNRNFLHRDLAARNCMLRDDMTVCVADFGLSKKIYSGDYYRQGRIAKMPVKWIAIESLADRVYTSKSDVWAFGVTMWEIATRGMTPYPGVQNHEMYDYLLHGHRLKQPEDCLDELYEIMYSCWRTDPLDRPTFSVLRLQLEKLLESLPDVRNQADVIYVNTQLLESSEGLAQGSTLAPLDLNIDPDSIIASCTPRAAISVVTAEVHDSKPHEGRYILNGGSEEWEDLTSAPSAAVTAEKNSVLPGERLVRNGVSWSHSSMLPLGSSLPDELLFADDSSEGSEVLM
The experiment in a line: Selectivity interaction (SelectScreen profiling (Invitrogen)) EUB0000607a MERTK. The conditions noted are these: at 2 µM.

The target in test [4] is Dual specificity mitogen-activated protein kinase kinase 1 (Homo sapiens, UniProt Q02750). Kind of test: Selectivity interaction (KinomeScan (DiscoverX)) EUB0001550a MAP2K1. The following applies: at 1 µM.
Sequence of Dual specificity mitogen-activated protein kinase kinase 1 (Q02750 whole entry): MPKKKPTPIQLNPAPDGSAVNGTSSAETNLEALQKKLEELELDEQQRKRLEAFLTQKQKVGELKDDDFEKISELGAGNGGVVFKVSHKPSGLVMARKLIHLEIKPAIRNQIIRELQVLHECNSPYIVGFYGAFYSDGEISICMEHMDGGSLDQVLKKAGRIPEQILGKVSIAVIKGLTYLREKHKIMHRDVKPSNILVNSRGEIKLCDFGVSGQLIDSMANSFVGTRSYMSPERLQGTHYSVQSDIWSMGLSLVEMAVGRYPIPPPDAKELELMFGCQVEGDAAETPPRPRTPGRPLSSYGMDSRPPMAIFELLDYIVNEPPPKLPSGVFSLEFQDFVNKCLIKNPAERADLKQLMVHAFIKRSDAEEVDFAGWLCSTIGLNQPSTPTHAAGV
For test [5], the target named is Serine/threonine-protein kinase OSR1 (Homo sapiens) (UniProt O95747). Kind of test: Selectivity interaction (KinomeScan (DiscoverX)) EUB0001049a OXSR1. The following applies: at 1 µM.
Sequence of Serine/threonine-protein kinase OSR1 (Homo sapiens) (O95747 2-527 limits assumed): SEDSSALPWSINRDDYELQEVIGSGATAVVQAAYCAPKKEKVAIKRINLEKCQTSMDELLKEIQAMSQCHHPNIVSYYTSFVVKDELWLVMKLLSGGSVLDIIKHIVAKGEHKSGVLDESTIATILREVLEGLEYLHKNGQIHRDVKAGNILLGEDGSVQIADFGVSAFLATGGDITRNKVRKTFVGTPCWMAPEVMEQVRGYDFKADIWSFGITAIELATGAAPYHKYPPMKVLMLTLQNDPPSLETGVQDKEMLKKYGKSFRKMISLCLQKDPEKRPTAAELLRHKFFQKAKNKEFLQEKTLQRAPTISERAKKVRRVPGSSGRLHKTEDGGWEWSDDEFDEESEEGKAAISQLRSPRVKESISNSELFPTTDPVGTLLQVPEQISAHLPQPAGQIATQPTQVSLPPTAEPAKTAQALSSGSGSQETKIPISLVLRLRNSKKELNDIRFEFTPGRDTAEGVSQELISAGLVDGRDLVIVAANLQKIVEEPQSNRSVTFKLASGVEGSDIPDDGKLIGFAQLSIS
The target in test [6] is T2, Mitogen-activated protein kinase kinase kinase 7 (Homo sapiens) (UniProt O43318).
T2 sequence (whole entry): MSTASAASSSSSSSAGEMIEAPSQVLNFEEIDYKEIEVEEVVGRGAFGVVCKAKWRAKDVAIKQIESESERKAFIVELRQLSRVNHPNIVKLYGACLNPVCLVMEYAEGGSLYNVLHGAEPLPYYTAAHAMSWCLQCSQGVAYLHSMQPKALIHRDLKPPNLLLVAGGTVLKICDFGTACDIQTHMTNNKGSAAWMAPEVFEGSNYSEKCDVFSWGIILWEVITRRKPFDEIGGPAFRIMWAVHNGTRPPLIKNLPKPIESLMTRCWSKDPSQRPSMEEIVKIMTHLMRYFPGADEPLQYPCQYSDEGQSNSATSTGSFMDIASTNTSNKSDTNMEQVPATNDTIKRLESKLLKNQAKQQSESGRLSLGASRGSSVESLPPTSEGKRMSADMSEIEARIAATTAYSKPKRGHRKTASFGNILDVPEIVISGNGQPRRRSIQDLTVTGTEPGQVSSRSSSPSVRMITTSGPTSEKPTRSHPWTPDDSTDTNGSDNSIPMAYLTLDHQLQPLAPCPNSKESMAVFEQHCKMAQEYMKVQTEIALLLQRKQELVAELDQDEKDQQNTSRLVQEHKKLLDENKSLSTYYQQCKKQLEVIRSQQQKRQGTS
The experiment in a line: Selectivity interaction (KinomeScan (DiscoverX)) EUB0000092b MAP3K7. The conditions noted are these: at 10 µM.

Another test deals with Mu-type opioid receptor (Homo sapiens, UniProt P35372). The experiment in a line: Selectivity interaction (Panel of non-epigenetic targets (kinases, GPCRs, ion channels, and transporters, Eurofins) ) EUB0000271b OPRM1. The conditions noted are these: at 1 µM.
Sequence of Mu-type opioid receptor (P35372 whole entry): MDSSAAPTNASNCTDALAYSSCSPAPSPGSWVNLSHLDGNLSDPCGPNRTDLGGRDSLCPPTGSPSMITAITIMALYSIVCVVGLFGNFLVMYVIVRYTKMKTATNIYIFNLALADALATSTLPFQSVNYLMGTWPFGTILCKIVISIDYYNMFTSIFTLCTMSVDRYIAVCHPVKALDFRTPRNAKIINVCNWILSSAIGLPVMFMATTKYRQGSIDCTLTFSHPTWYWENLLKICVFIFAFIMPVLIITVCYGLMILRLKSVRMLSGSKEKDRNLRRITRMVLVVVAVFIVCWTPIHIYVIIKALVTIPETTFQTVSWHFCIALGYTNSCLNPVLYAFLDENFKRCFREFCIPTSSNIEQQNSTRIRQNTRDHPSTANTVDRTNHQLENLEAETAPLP
Test [7] deals with T3, TGF-beta receptor type-1 (Homo sapiens) (UniProt P36897).
T3 sequence (whole entry): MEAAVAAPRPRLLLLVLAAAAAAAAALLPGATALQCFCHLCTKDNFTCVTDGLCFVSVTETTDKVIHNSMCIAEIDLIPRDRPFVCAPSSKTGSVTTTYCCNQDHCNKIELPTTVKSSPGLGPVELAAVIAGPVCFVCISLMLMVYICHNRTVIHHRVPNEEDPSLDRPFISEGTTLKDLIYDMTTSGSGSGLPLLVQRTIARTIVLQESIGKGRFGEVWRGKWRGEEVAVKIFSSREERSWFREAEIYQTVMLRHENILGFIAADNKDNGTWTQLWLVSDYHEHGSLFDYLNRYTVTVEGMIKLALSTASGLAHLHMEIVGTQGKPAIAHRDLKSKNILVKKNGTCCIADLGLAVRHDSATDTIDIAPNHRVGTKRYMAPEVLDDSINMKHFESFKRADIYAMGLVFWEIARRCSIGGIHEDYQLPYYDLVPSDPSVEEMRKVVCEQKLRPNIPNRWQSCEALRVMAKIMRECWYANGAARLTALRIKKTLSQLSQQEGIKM
Kind of test: Selectivity interaction (KinomeScan (DiscoverX)) EUB0001079a TGFBR1. The following applies: at 1 µM.

The target in test [8] is Macrophage colony-stimulating factor 1 receptor (Homo sapiens) (UniProt P07333). Kind of test: Selectivity interaction (KinomeScan (DiscoverX)) EUB0000229b CSF1R. The following applies: at 10 µM.
Sequence of Macrophage colony-stimulating factor 1 receptor (Homo sapiens) (P07333 whole entry): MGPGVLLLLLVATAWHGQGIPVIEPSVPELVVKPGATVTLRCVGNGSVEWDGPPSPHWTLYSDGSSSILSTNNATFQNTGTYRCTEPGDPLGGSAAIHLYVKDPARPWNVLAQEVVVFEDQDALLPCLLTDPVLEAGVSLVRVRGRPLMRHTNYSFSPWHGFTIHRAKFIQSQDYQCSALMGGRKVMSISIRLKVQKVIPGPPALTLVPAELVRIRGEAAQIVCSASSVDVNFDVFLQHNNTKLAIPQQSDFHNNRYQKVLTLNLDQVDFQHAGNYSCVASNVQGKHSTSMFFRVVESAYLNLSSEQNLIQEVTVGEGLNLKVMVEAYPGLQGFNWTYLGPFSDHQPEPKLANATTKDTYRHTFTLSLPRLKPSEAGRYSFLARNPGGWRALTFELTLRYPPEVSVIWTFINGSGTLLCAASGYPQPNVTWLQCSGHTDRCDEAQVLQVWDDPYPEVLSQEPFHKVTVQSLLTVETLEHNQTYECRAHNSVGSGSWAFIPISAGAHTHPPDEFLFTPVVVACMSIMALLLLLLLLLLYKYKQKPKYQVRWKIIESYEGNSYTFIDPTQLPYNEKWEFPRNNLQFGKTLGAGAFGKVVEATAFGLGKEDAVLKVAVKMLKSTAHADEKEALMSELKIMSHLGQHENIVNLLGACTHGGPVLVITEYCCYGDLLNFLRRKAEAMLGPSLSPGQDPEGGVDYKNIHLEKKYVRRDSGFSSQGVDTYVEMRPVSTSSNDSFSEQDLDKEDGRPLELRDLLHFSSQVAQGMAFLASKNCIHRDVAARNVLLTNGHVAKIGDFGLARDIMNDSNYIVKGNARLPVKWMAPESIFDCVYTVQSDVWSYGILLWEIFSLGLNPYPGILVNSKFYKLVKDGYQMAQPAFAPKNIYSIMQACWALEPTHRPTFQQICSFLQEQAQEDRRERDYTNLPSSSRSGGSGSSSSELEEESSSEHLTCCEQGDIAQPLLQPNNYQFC

Sequence of SRSF protein kinase 2 (Homo sapiens) (P78362 whole entry, looked up): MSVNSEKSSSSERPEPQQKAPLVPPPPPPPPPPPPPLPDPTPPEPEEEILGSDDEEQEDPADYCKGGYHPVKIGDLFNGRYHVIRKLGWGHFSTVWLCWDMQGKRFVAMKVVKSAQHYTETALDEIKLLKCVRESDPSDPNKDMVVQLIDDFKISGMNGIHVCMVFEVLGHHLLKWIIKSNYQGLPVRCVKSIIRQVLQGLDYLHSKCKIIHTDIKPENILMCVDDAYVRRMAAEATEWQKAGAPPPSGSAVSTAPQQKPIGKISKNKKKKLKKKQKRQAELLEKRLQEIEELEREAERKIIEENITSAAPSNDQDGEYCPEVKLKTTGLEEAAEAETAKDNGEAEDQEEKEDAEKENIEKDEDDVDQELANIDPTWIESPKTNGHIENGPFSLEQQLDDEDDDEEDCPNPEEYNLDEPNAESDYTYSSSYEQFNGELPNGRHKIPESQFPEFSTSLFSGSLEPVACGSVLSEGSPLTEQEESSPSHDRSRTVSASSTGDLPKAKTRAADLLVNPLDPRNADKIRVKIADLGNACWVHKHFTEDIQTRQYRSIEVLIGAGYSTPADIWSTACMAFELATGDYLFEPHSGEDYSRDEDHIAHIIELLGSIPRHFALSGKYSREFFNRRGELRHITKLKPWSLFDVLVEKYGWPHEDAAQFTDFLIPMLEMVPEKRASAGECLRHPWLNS

Take `Cn1cc(-n2cnc3c(NCc4nc5cc(Cl)c(Cl)cc5[nH]4)nc(N4CCOCC4)nc32)cn1`: the % of control in test [1] is 3.94%.

Turning to `N#Cc1cccc(-c2c[nH]c3ncnc(N4CCOCC4)c23)c1`, the % of control in test [2] came to 70%.

As for `CNC(=O)Nc1ccc(-c2nc(N3CC4CCC(C3)O4)c3cnn(C4CCC5(CC4)OCCO5)c3n2)cc1`, the % of inhibition in [3] was 1%.

Compound `CN(C)CC#Cc1ccc2[nH]c3c(c2c1)-c1nc(N)ncc1CCC3` gave a % of control in test [4] of 4.5%.

Compound `COc1cc(Nc2nc(C)cc(-c3cnn4nc(OC)ccc34)n2)cc(C(F)(F)F)c1` displayed a % of control in [5] of 83%.

As for `CCC(=O)N1CCN(c2ccc(-n3c(=O)ccc4cnc5ccc(-c6cnc7ccccc7c6)cc5c43)cc2C(F)(F)F)CC1`, in [6], the % of control amounted to 47%.

With `Cc1cc(C)cc([C@@H]2c3cc(C)ccc3NC(=O)CN2C(=O)c2ccc(Br)s2)c1`, the % of inhibition at Mu-type opioid receptor is 4%.

In turn, `Nc1cnc(N2CCc3cc(S(=O)(=O)Nc4c(F)cc(Cl)cc4F)cc(N4CCCC4=O)c32)nc1` [TP-020n] came in with a % of control in test [7] of 100%.

In [8], `COc1cc(N(C)c2ccnc3ccc(C(F)(F)F)cc23)cc(OC)c1OC` showed a % binding of 96%.

These data come from ChEMBL document CHEMBL5465560, “Selectivity Literature for EUbOPEN Chemogenomic Library” (2024).
